Measurements taken from ChEMBL document CHEMBL1158667, “Agelasines H and I, 9-methyladenine-containing diterpenoids from an Agelas sponge” (J Nat Prod, 1998).
Activity calls are given as the source filed them. No cut-off for these calls is given here.

Experiments:
Assay type in all cases: functional, organism-based
Saccharomyces cerevisiae [1] = test: Antimicrobial activity against Saccharomyces cerevisiae ATCC 18824 at 200 ug/mL
Pseudomonas aeruginosa [2] = test: Antimicrobial activity against Pseudomonas aeruginosa ATCC 15442 at 200 ug/mL
Pseudomonas aeruginosa [3] = test: Antimicrobial activity against Pseudomonas aeruginosa ATCC 15442 at 10 ug/mL
Staphylococcus aureus [4] = test: Antimicrobial activity against Staphylococcus aureus ATCC 6538 at 200 ug/mL
Saccharomyces cerevisiae [5] = test: Antimicrobial activity against Saccharomyces cerevisiae ATCC 18824 at 100 ug/mL
Aspergillus niger [6] = test: Antimicrobial activity against Aspergillus niger ATCC 9642 at 200 ug/mL
Aspergillus niger [7] = test: Antimicrobial activity against Aspergillus niger ATCC 9642 at 100 ug/mL
Staphylococcus aureus [8] = test: Antimicrobial activity against Staphylococcus aureus ATCC 6538 at 1 ug/mL
Aspergillus niger [9] = test: Antimicrobial activity against Aspergillus niger ATCC 9642 at 10 ug/mL
Saccharomyces cerevisiae [10] = test: Antimicrobial activity against Saccharomyces cerevisiae ATCC 18824 at 1 ug/mL
Aspergillus niger [11] = test: Antimicrobial activity against Aspergillus niger ATCC 9642 at 1 ug/mL
Staphylococcus aureus [12] = test: Antimicrobial activity against Staphylococcus aureus ATCC 6538 at 100 ug/mL
Saccharomyces cerevisiae [13] = test: Antimicrobial activity against Saccharomyces cerevisiae ATCC 18824 at 10 ug/mL
Pseudomonas aeruginosa [14] = test: Antimicrobial activity against Pseudomonas aeruginosa ATCC 15442 at 1 ug/mL
Staphylococcus aureus [15] = test: Antimicrobial activity against Staphylococcus aureus ATCC 6538 at 10 ug/mL
Pseudomonas aeruginosa [16] = test: Antimicrobial activity against Pseudomonas aeruginosa ATCC 15442 at 100 ug/mL

SMILES | Activity (Saccharomyces cerevisiae [1]) | Activity (Pseudomonas aeruginosa [2]) | Activity (Pseudomonas aeruginosa [3]) | Activity (Staphylococcus aureus [4]) | Activity (Saccharomyces cerevisiae [5]) | Activity (Aspergillus niger [6]) | Activity (Aspergillus niger [7]) | Activity (Staphylococcus aureus [8]) | Activity (Aspergillus niger [9]) | Activity (Saccharomyces cerevisiae [10]) | Activity (Aspergillus niger [11]) | Activity (Staphylococcus aureus [12]) | Activity (Saccharomyces cerevisiae [13]) | Activity (Pseudomonas aeruginosa [14]) | Activity (Staphylococcus aureus [15]) | Activity (Pseudomonas aeruginosa [16])
C=C1[C@H](O)CC[C@H]2[C@](C)(CC/C(C)=C/Cn3c[n+](C)c4ncnc(N)c43)[C@@H](C)CC[C@@]12C | Active | – | – | – | – | – | – | – | – | – | – | – | – | – | – | –
CC1=CCC[C@H]2[C@](C)(CC/C(C)=C/Cn3c[n+](C)c4ncnc(N)c43)[C@@H](C)CC[C@@]12C | inactive | inactive | inactive | inactive | inactive | inactive | inactive | inactive | inactive | inactive | inactive | inactive | inactive | inactive | inactive | inactive
CC1=CCC[C@@H]2[C@@](C)(CC/C(C)=C/Cn3c[n+](C)c4ncnc(N)c43)[C@H](C)CC[C@@]12C | inactive | inactive | – | inactive | – | inactive | – | – | – | – | – | – | Active | – | – | –
C/C(=C\Cn1c[n+](C)c2ncnc(N)c21)CC[C@]1(C)[C@@H](C)CC[C@@]2(C)C(CO)=CCC[C@@H]12 | inactive | inactive | inactive | inactive | inactive | inactive | inactive | inactive | inactive | inactive | inactive | inactive | inactive | inactive | inactive | inactive
C/C(=C\Cn1c[n+](C)c2ncnc(N)c21)CC[C@]1(C)[C@@H](C)CC[C@@]2(C)C(COC(=O)c3ccc[nH]3)=CCC[C@@H]12 | inactive | inactive | – | inactive | – | inactive | – | – | – | – | – | – | Active | – | – | –
CC1=CCC[C@H](C)[C@@]1(C)CC/C(C)=C/CC/C(C)=C/Cn1c[n+](C)c2ncnc(N)c21 | – | – | – | – | – | – | Active | – | – | – | – | – | Active | – | – | –
